Laboratory results published in patent US7160888B2, “[1,8]naphthyridin-2-ones and related compounds for the treatment of schizophrenia” (Warner Lambert Company LLC, priority 2003, dated 2007).

Target: D2 receptor (Homo sapiens, UniProt P14416)
Assay: [3H]Thymidine uptake assay for D2 intrinsic activity
Format: cell-based
Conditions: Table 1; test compound 1 μM; 1 μM Quinpirole = 100% intrinsic activity

D2 receptor, sequence (P14416 whole entry): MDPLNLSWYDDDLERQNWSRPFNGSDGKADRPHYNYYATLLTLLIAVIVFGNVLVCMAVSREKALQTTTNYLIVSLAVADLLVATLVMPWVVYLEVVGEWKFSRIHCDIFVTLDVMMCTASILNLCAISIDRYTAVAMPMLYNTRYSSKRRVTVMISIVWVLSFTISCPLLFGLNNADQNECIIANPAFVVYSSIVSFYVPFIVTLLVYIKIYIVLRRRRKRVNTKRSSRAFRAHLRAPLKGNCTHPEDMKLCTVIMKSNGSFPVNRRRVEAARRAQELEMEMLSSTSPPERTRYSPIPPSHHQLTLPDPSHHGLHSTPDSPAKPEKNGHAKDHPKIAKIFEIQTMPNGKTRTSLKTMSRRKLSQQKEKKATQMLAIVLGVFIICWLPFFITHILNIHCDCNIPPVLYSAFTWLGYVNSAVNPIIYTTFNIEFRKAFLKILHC

First: CC(=O)Nc1ccc2cccc(N3CCN(CCCCOc4ccc5c(n4)NC(=O)CC5)CC3)c2c1 [Example A84, N-(8-{4-[4-(7-Oxo-5,6,7,8-tetrahydro-[1,8]naphthyridin-2-yloxy)-butyl]-piperazin-1-yl}-naphthalen-2-yl)-acetamide]
Second: O=C1CCc2ccc(OCCCCN3CCN(c4cccc5ccccc45)CC3)nc2N1 [Example A48, 7-[4-(4-Naphthalen-1-yl-piperazin-1-yl)-butoxy]-3,4-dihydro-1H-[1,8]naphthyridin-2-one]
The Emax at 1 µM of the first is lower: 11% for the first, 34% for the second.

First: CC(=O)c1ccc2ccccc2c1N1CCN(CCCCOc2ccc3c(n2)NC(=O)CC3)CC1 [Example A82, 7-{4-[4-(2-Acetyl-naphthalen-1-yl)-piperazin-1-yl]-butoxy}-3,4-dihydro-1H-[1,8]naphthyridin-2-one]
Second: CC(=O)c1ccccc1N1CCN(CCCCOc2ccc3c(n2)NC(=O)CC3)CC1 [Example A34, 7-{4-[4-(2-Acetyl-phenyl)-piperazin-1-yl]-butoxy}-3,4-dihydro-1H-[1,8]naphthyridin-2-one]
The Emax at 1 µM of the first is higher: 27% for the first, 8% for the second.

Compared with `O=c1ccc2ccc(OCCCCN3CCN(c4cccc5ccccc45)CC3)nc2[nH]1` [Example B47, 7-[4-(4-Naphthalen-1-yl-piperazin-1-yl)-butoxy]-1H-[1,8]naphthyridin-2-one], `N#Cc1ccc2cccc(N3CCN(CCCCOc4ccc5ccc(=O)[nH]c5n4)CC3)c2c1` [Example B67, 8-{4-[4-(7-Oxo-7,8-dihydro-[1,8]naphthyridin-2-yloxy)-butyl]-piperazin-1-yl}-naphthalene-2-carbonitrile] is lower in Emax at 1 µM: 44% for the first, 39% for the second.

Compared with `CC1(C)OC(=O)Nc2nc(CCCCCN3CCN(c4cccc(Cl)c4Cl)CC3)ccc21` [Example F9, 7-{5-[4-(2,3-Dichloro-phenyl)-piperazin-1-yl]-pentyl}-4,4-dimethyl-1,4-dihydro-pyrido[2,3-d][1,3]oxazin-2-one], `COc1cccc(N2CCN(CCCCOc3ccc4c(n3)NC(=O)CC4)CC2)c1Cl` [Example A22, 7-{4-[4-(2-Chloro-3-methoxy-phenyl)-piperazin-1-yl]-butoxy}-3,4-dihydro-1H-[1,8]naphthyridin-2-one] is higher in Emax at 1 µM: 11% for the first, 36% for the second.

Going from `Cc1nc(OCCCCN2CCN(c3cccc4ccccc34)CC2)nc2[nH]c(=O)c(F)cc12` [Example H5, 6-Fluoro-4-methyl-2-[4-(4-naphthalen-1-yl-piperazin-1-yl)-butoxy]-8H-pyrido[2,3-d]pyrimidin-7-one] to `O=C1CCc2cnc(OCCCCN3CCN(c4cccc5ccccc45)CC3)c(Cl)c2N1` [Example I10, 8-Chloro-7-[4-(4-naphthalen-1-yl-piperazin-1-yl)-butoxy]-3,4-dihydro-1H-[1,6]naphthyridin-2-one], the Emax at 1 µM falls from 34% to 21%.

Compared with `O=C1CCc2ccc(OCCCCN3CCN(c4ccccc4)CC3)nc2N1` [Example A39, 7-[4-(4-phenyl-piperazin-1-yl)-butoxy]-3,4-dihydro-1H-[1,8]naphthyridin-2-one], `CC(C)COc1ccccc1N1CCN(CCCCOc2ccc3c(n2)NC(=O)CC3)CC1` [Example A27, 7-{4-[4-(2-Isobutoxy-phenyl)-piperazin-1-yl]-butoxy}-3,4-dihydro-1H-[1,8]naphthyridin-2-one] is lower in Emax at 1 µM: 56% for the first, 38% for the second.

First: CCc1ccccc1N1CCN(CCCCOc2ccc3c(n2)NC(=O)CC3(C)C)CC1 [Example D23, 7-{4-[4-(2-Ethyl-phenyl)-piperazin-1-yl]-butoxy}-4,4-dimethyl-3,4-dihydro-1H-[1,8]naphthyridin-2-one]
Second: CC1(C)CCc2cccc(N3CCN(CCCCOc4ccc5c(n4)NC(=O)CC5)CC3)c2C1=O [Example A52, 7-{4-[4-(7,7-Dimethyl-8-oxo-5,6,7,8-tetrahydro-naphthalen-1-yl)-piperazin-1-yl]-butoxy}-3,4-dihydro-1H-[1,8]naphthyridin-2-one]
The Emax at 1 µM of the first is higher: 33% for the first, 32% for the second.

`O=C1CCc2cccc(N3CCN(CCCCOc4ccc5ccc(=O)[nH]c5n4)CC3)c2C1` [Example B40, 7-{4-[4-(7-Oxo-5,6,7,8-tetrahydro-naphthalen-1-yl)-piperazin-1-yl]-butoxy}-1H-[1,8]naphthyridin-2-one] and `O=c1ccc2ccc(OCCCCN3CCN(c4cccc(Cl)c4F)CC3)nc2[nH]1` [Example B22, 7-{4-[4-(3-Chloro-2-fluoro-phenyl)-piperazin-1-yl]-butoxy}-1H-[1,8]naphthyridin-2-one] are the same in Emax at 1 µM: 36% for the first, 36% for the second.

`CC(=O)c1c(F)cccc1N1CCN(CCCCOc2ccc3c(n2)NC(=O)CC3)CC1` [Example A30, 7-{4-[4-(2-Acetyl-3-fluoro-phenyl)-piperazin-1-yl]-butoxy}-3,4-dihydro-1H-[1,8]naphthyridin-2-one] gave an Emax at 1 µM of 11%.

Same assay, conditions: Table 2; test compound 1 μM; 1 μM Quinpirole = 100% intrinsic activity

First: O=C1CCc2ccc(OCCCCN3CCN(c4cccc5c4OCCCO5)CC3)nc2N1 [Example A17′, 7-{4-[4-(3,4-Dihydro-2H-benzo[b][1,4]dioxepin-6-yl)-piperazin-1-yl]-butoxy}-3,4-dihydro-1H-[1,8]naphthyridin-2-one]
Second: O=c1ccc2ccc(OCCCCN3CCN(c4cccc5c4OCCCO5)CC3)nc2[nH]1 [Example B20′, 7-{4-[4-(3,4-Dihydro-2H-benzo[b][1,4]dioxepin-6-yl)-piperazin-1-yl]-butoxy}-1H-[1,8]naphthyridin-2-one]
The Emax at 1 µM of the first is lower: 15% for the first, 16% for the second.

Going from `O=c1ccc2cnc(OCCCCN3CCN(c4cccc5c4OC(F)(F)O5)CC3)nc2[nH]1` [Example G7′, 2-{4-[4-(2,2-Difluoro-benzo[1,3]dioxol-4-yl)-piperazin-1-yl]-butoxy}-8H-pyrido[2,3-d]pyrimidin-7-one] to `O=c1ccc2ccc(OCCCCN3CCN(c4cccc5nccnc45)CC3)nc2[nH]1` [Example B23′, 7-[4-(4-Quinoxalin-5-yl-piperazin-1-yl)-butoxy]-1H-[1,8]naphthyridin-2-one], the Emax at 1 µM falls from 38% to 21%.

First: CC1(C)CC(=O)Nc2nc(OCCCCN3CCN(c4cccc5cccnc45)CC3)ccc21 [Example C1′, 4,4-Dimethyl-7-[4-(4-quinolin-8-yl-piperazin-1-yl)-butoxy]-3,4-dihydro-1H-[1,8]naphthyridin-2-one]
Second: CC1C=Cc2cccc(N3CCN(CCCCOc4ccc5c(n4)NC(=O)CC5)CC3)c2O1 (centres unmarked) [Example A9′, 7-{4-[4-(2-Methyl-2H-chromen-8-yl)-piperazin-1-yl]-butoxy}-3,4-dihydro-1H-[1,8]naphthyridin-2-one]
The Emax at 1 µM of the first is higher: 38% for the first, 30% for the second.

Compared with `O=c1ccc2ccc(OCCCCN3CCN(c4cccc5[nH]ccc45)CC3)nc2[nH]1` [Example B24′, 7-{4-[4-(1H-Indol-4-yl)-piperazin-1-yl]-butoxy}-1H-[1,8]naphthyridin-2-one], `CN1CCCc2c1cccc2N1CCN(CCCCOc2ccc3c(n2)NC(=O)CC3)CC1` [Example A32′, 7-{4-[4-(1-Methyl-1,2,3,4-tetrahydro-quinolin-5-yl)-piperazin-1-yl]-butoxy}-3,4-dihydro-1H-[1,8]naphthyridin-2-one] is lower in Emax at 1 µM: 42% for the first, 27% for the second.

`O=C1CCc2ccc(OCCCCN3CCN(c4cccc5c4OC(F)(F)C(F)(F)O5)CC3)nc2N1` [Example A18′, 7-{4-[4-(2,2,3,3-Tetrafluoro-2,3-dihydro-benzo[1,4]dioxin-5-yl)-piperazin-1-yl]-butoxy}-3,4-dihydro-1H-[1,8]naphthyridin-2-one] gave an Emax at 1 µM of 13%.
